Experimental data: ChEMBL document CHEMBL4613260, “NF-κB Inhibitory and Antibacterial Helvolic and Fumagillin Derivatives from Aspergillus terreus” (J Nat Prod, 2020)
Active and inactive are the calls of the source. No cut-off for these calls is given here.

What was measured:
A2780 = experiment: Antiproliferative activity against human A2780 cells at 40 uM after 72 hrs by Cyquant assay; assay type: functional, cell-based
HEK293 = experiment: Cytotoxicity against HEK293 cells at 50 uM by SRB assay; assay type: cell-based; conditions: human, hek293, 50 µM
Staphylococcus aureus [1] = experiment: Antibacterial activity against Staphylococcus aureus ATCC 43300 after 24 hrs by resazurin dye based broth microdilution method; assay type: functional; conditions: ATCC 43300, 24 h
Escherichia coli [2] = experiment: Antibacterial activity against Escherichia coli ATCC 9637 after 24 hrs by resazurin dye based broth microdilution method; assay type: functional; conditions: W ATCC 9637, 24 h
[3] = Inhibition of TNFalpha-induced NFkappaB activation in human HEK293 cells after 6 hrs by luciferase assay; assay type: cell-based; conditions: HEK293, 6 h
Staphylococcus aureus [4] = experiment: Antibacterial activity against Staphylococcus aureus ATCC 43300 at 50 ug/ml after 24 hrs by resazurin dye based broth microdilution method; assay type: functional, organism-based
Escherichia coli [5] = experiment: Antibacterial activity against Escherichia coli ATCC 9637 at 50 ug/ml after 24 hrs by resazurin dye based broth microdilution method; assay type: functional, organism-based; conditions: W ATCC 9637

SMILES | Activity (A2780) | Activity (HEK293) | MIC (Staphylococcus aureus [1]) | MIC (Escherichia coli [2]) | IC50 [3] | Activity (Staphylococcus aureus [4]) | Activity (Escherichia coli [5])
CC(=O)O[C@H]1C[C@@]2(C)[C@@H](CC[C@H]3[C@@]4(C)CCC(=O)[C@@H](C)[C@@H]4[C@H](O)C(=O)[C@@]32C)/C1=C(\CCC=C(C)C)C(=O)O | inactive | Non-Toxic | 12.5 µg/mL | 25 µg/mL |  |  | 
O=C(N[C@H](CO)[C@H](O)c1ccc([N+](=O)[O-])cc1)C(Cl)Cl [CHLORAMPHENICOL] |  |  | 19.4 µM | 9.66 µM |  |  | 
CC(=O)O[C@H]1C[C@@]2(C)[C@@H](CC[C@H]3[C@@]4(C)CCC(=O)[C@@H](C)[C@@H]4CC[C@@]32C)/C1=C(\CCC=C(C)C)C(=O)O | inactive | Non-Toxic | 6.25 µg/mL | 25 µg/mL |  |  | 
Cc1ccc(S(=O)(=O)N[C@@H](Cc2ccccc2)C(=O)CCl)cc1 [TPCK] |  |  |  |  | 5.3 µM |  | 
Cc1ccc(S(=O)(=O)/C=C/C#N)cc1 |  |  |  |  | 11 µM |  | 
CC(=O)O[C@H]1C[C@@]2(C)[C@@H](CC[C@H]3[C@@]4(C)CCC(=O)[C@@H](C)[C@@H]4C[C@@H](O)[C@@]32C)/C1=C(\CCC=C(C)C)C(=O)O | inactive | Non-Toxic | 6.25 µg/mL | 25 µg/mL |  |  | 
CC(=O)O[C@H]1C[C@@]2(C)[C@@H](CC[C@H]3[C@@]4(C)C=CC(=O)[C@@H](C)[C@@H]4[C@H](OC(C)=O)C(=O)[C@@]32C)/C1=C(\CCC=C(C)C)C(=O)O [HELVOLIC ACID] | inactive | Non-Toxic | 12.5 µg/mL | 3.12 µg/mL | 2.7 µM |  | 
CC(=O)O[C@H]1C[C@@]2(C)[C@@H](CC[C@H]3[C@@]4(C)CCC(=O)[C@@H](C)[C@@H]4[C@H](OC(C)=O)C(=O)[C@@]32C)/C1=C(\CCC=C(C)C)C(=O)O | inactive | Non-Toxic | 50 µg/mL | 25 µg/mL | 6.5 µM |  | 
CO[C@@H]1[C@H](OC(=O)/C=C/C=C/C=C/C(=O)O)CC[C@]2(O)CO[C@](C)([C@H](O)CC=C(C)C)[C@@H]12 | inactive | Non-Toxic |  |  |  | inactive | inactive
CO[C@@H]1[C@H](OC(=O)/C=C/C=C/C=C/C=C/C(=O)O)CC[C@]2(CO2)[C@H]1[C@@]1(C)O[C@@H]1CC=C(C)C [FUMAGILLIN] | inactive | Non-Toxic |  |  |  | inactive | inactive
